The target in one assay is T1, CRF1R (Homo sapiens, UniProt P34998).
T1 sequence (P34998 24-415): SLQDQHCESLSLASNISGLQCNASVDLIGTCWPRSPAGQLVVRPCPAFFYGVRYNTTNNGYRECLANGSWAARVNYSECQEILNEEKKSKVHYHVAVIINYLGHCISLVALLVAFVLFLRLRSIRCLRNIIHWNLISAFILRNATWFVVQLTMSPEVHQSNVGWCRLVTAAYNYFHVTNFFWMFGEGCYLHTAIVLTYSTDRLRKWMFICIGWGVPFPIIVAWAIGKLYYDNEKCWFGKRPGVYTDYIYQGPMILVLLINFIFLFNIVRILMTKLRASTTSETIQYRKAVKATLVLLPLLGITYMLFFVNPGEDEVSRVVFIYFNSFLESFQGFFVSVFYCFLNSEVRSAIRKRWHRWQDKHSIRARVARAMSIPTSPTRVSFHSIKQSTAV
As to the kind of experiment: CRF1R agonist activity (EC50, Emax), called comparative CRF binding. The class given is cell-based. The procedure, abridged: (§1)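 Recombinant CRF1R or CRF2R cells were exposed to peptide. Reporter expression linked to cAMP response element was then quantitated, relative to vehicle control.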

A further assay addresses T2, CRF2R (Homo sapiens, UniProt Q13324).
T2 sequence (Q13324 1-411): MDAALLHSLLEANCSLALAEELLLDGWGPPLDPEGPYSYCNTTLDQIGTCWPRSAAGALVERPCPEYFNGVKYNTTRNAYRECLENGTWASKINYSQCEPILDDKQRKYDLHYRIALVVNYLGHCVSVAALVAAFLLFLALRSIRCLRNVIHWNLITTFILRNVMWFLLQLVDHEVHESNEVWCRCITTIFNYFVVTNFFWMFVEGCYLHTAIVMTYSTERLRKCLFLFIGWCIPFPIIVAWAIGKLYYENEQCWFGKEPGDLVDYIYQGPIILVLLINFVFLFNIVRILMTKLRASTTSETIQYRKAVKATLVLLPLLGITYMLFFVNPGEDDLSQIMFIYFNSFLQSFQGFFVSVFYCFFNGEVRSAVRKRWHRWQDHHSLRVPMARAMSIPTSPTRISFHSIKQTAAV
As to the kind of experiment: CRF2R agonist activity (EC50, Emax), called comparative CRF binding. The class given is cell-based. In short, it runs like this: as §1

Where two headings read alike, the source gives them in different places. Peptide text beside a SMILES is read from it. Where only a bound is given, the exact number is not on record here.

Turning to `CC[C@H](C)[C@H](N)C(=O)N[C@H](C(=O)N[C@@H](CC(C)C)C(=O)N[C@@H](CO)C(=O)N[C@@H](CC(C)C)C(=O)N[C@@H](CC(=O)O)C(=O)N[C@H](C(=O)N1CCC[C@H]1C(=O)N[C@H](C(=O)NCC(=O)N[C@@H](CC(C)C)C(=O)N[C@@H](CC(C)C)C(=O)N[C@@H](CCC(N)=O)C(=O)N[C@H](C(=O)N[C@@H](CC(C)C)C(=O)N[C@@H](CC(C)C)C(=O)N[C@@H](CCC(=O)O)C(=O)N[C@@H](CCC(N)=O)C(=O)N[C@@H](CCC(=O)O)C(=O)N[C@@H](CCCCN)C(=O)N[C@@H](CCC(N)=O)C(=O)N[C@@H](CCCNC(=N)N)C(=O)N[C@@H](C)C(=O)N[C@@H](C)C(=O)N[C@@H](CCCNC(=N)N)C(=O)N[C@@H](CCC(=O)O)C(=O)N[C@@H](CCC(N)=O)C(=O)N[C@@H](C)C(=O)N[C@H](C(=O)N[C@H](C(=O)N[C@@H](CC(N)=O)C(=O)N[C@@H](C)C(=O)N[C@@H](CCCNC(=N)N)C(=O)N[C@H](C(=O)N[C@@H](CC(C)C)C(=O)N[C@@H](C)C(=O)N[C@@H](CCCNC(=N)N)C(=O)N[C@H](C(N)=O)C(C)C)[C@@H](C)CC)[C@@H](C)O)[C@@H](C)O)[C@@H](C)CC)[C@@H](C)CC)C(C)C)C(C)C` [compound 115] (H-IVLSLDVPIGLLQILLEQEKQRAAREQATTNARILARV-NH2; N-terminus assumed), the EC50 (as a rule, the concentration at which the effect is half-maximal) at CRF1R (read-out: CRF1R EC50) is more than 100 nM; on CRF2R (read-out: CRF2R EC50), 13.6 nM.
As to `CC[C@H](C)[C@H](NC(=O)[C@H](CCCNC(=N)N)NC(=O)[C@H](C)NC(=O)[C@H](CC(N)=O)NC(=O)[C@H](CCC(N)=O)NC(=O)[C@H](CCC(=O)O)NC(=O)[C@H](C)NC(=O)[C@H](CCCNC(=N)N)NC(=O)[C@H](CCC(=O)O)NC(=O)[C@H](CCCNC(=N)N)NC(=O)[C@H](CCC(N)=O)NC(=O)[C@H](CO)NC(=O)[C@H](CCC(N)=O)NC(=O)[C@@H](NC(=O)[C@H](CCCCN)NC(=O)[C@H](CCC(=O)O)NC(=O)[C@H](CC(C)C)NC(=O)[C@H](CCC(=O)O)NC(=O)[C@H](CC(C)C)NC(=O)[C@H](CC(C)C)NC(=O)[C@@H](NC(=O)[C@H](CCCNC(=N)N)NC(=O)[C@H](CC(C)C)NC(=O)[C@H](CC(C)C)NC(=O)[C@H](Cc1ccccc1)NC(=O)[C@H](CC(C)C)NC(=O)[C@@H]1CCCN1C(=O)[C@H](CC(C)C)NC(=O)[C@H](CC(=O)O)NC(=O)[C@@H](NC(=O)[C@H](CO)NC(=O)[C@H](CC(C)C)NC(=O)[C@H](CO)NC(=O)[C@@H]1CCCN1)[C@@H](C)CC)[C@@H](C)O)[C@@H](C)O)C(=O)N[C@@H](Cc1ccccc1)C(=O)N[C@@H](C)C(=O)N[C@@H](CCCNC(=N)N)C(=O)N[C@H](C(N)=O)C(C)C` [compound 331] (H-PSLSIDLPLFLLRTLLELEKTQSQRERAEQNARIFARV-NH2; N-terminus assumed), the EC50 is not below 1000 nM at CRF1R (read-out: CRF1R EC50) and 9.85 nM on CRF2R (read-out: CRF2R EC50).
On to `CC[C@H](C)[C@H](N)C(=O)N[C@H](C(=O)N[C@@H](CC(C)C)C(=O)N[C@@H](CO)C(=O)N[C@@H](CC(C)C)C(=O)N[C@@H](CC(=O)O)C(=O)N[C@H](C(=O)N1CCC[C@H]1C(=O)N[C@H](C(=O)NCC(=O)N[C@@H](CC(C)C)C(=O)N[C@@H](CC(C)C)C(=O)N[C@@H](CCC(N)=O)C(=O)N[C@@H](CCCCN)C(=O)N[C@H](C(=O)N[C@H](C(=O)N[C@@H](CCC(=O)O)C(=O)N[C@H](C(=O)N[C@@H](CCC(=O)O)C(=O)N[C@@H](CCCCN)C(=O)N[C@@H](CCC(N)=O)C(=O)N[C@@H](CCC(=O)O)C(=O)N[C@@H](CCCCN)C(=O)N[C@@H](CCC(=O)O)C(=O)N[C@@H](CCCCN)C(=O)N[C@@H](CCC(N)=O)C(=O)N[C@@H](CCC(N)=O)C(=O)N[C@@H](C)C(=O)N[C@H](C(=O)N[C@H](C(=O)N[C@@H](CC(N)=O)C(=O)N[C@@H](C)C(=O)N[C@@H](CCCNC(=N)N)C(=O)N[C@H](C(=O)N[C@@H](CC(C)C)C(=O)N[C@@H](C)C(=O)N[C@@H](CCCNC(=N)N)C(=O)N[C@H](C(N)=O)C(C)C)[C@@H](C)CC)[C@@H](C)O)[C@@H](C)O)[C@@H](C)CC)[C@@H](C)CC)C(C)C)[C@@H](C)CC)C(C)C)C(C)C` [compound 300] (H-IVLSLDVPIGLLQKVIEIEKQEKEKQQATTNARILARV-NH2; N-terminus assumed), for which the EC50 was not below 1000 nM on CRF1R (read-out: CRF1R EC50) and 17.1 nM at CRF2R (read-out: CRF2R EC50).
In the case of `CC[C@H](C)[C@H](N)C(=O)N[C@H](C(=O)N[C@@H](CC(C)C)C(=O)N[C@@H](CO)C(=O)N[C@@H](CC(C)C)C(=O)N[C@@H](CC(=O)O)C(=O)N[C@H](C(=O)N1CCC[C@H]1C(=O)N[C@H](C(=O)NCC(=O)N[C@@H](CC(C)C)C(=O)N[C@@H](CC(C)C)C(=O)N[C@@H](CCC(N)=O)C(=O)N[C@H](C(=O)N[C@@H](CC(C)C)C(=O)N[C@H](C(=O)N[C@@H](CCC(=O)O)C(=O)N[C@H](C(=O)N[C@@H](CCC(=O)O)C(=O)N[C@@H](CCCCN)C(=O)N[C@@H](CCC(N)=O)C(=O)N[C@@H](CCC(=O)O)C(=O)N[C@@H](CCCCN)C(=O)N[C@@H](CCC(=O)O)C(=O)N[C@@H](CCCCN)C(=O)N[C@@H](CCC(N)=O)C(=O)N[C@@H](CCC(N)=O)C(=O)N[C@@H](C)C(=O)N[C@@H](C)C(=O)N[C@@H](CC(N)=O)C(=O)N[C@@H](CC(N)=O)C(=O)N[C@@H](CCCNC(=N)N)C(=O)N[C@@H](CC(C)C)C(=O)N[C@@H](CC(C)C)C(=O)N[C@@H](CC(C)C)C(=O)N[C@@H](CC(=O)O)C(=O)N[C@H](C(=O)N[C@H](C(N)=O)[C@@H](C)CC)[C@@H](C)O)[C@@H](C)CC)[C@@H](C)CC)[C@@H](C)CC)[C@@H](C)CC)C(C)C)C(C)C` [compound 154] (H-IVLSLDVPIGLLQILIEIEKQEKEKQQAANNRLLLDTI-NH2; N-terminus assumed), the results for the EC50 at CRF1R and on CRF2R were more than 100 nM and 10.3 nM, respectively.
`CC[C@H](C)[C@H](N)C(=O)N[C@H](C(=O)N[C@@H](CC(C)C)C(=O)N[C@@H](CO)C(=O)N[C@@H](CC(C)C)C(=O)N[C@@H](CC(=O)O)C(=O)N[C@H](C(=O)N1CCC[C@H]1C(=O)N[C@H](C(=O)NCC(=O)N[C@@H](CC(C)C)C(=O)N[C@@H](CC(C)C)C(=O)N[C@@H](CCC(N)=O)C(=O)N[C@H](C(=O)N[C@@H](CC(C)C)C(=O)N[C@@H](CC(C)C)C(=O)N[C@@H](CCC(=O)O)C(=O)N[C@@H](CCC(N)=O)C(=O)N[C@@H](CCC(=O)O)C(=O)N[C@@H](CCCCN)C(=O)N[C@@H](CCC(N)=O)C(=O)N[C@@H](CCC(=O)O)C(=O)N[C@@H](C)C(=O)N[C@@H](C)C(=O)N[C@@H](CCCNC(=N)N)C(=O)N[C@@H](CCC(=O)O)C(=O)N[C@@H](CCC(N)=O)C(=O)N[C@@H](C)C(=O)N[C@H](C(=O)N[C@H](C(=O)N[C@@H](CC(N)=O)C(=O)N[C@@H](C)C(=O)N[C@@H](CCCNC(=N)N)C(=O)N[C@H](C(=O)N[C@@H](CC(C)C)C(=O)N[C@@H](C)C(=O)N[C@@H](CCCNC(=N)N)C(=O)N[C@H](C(N)=O)C(C)C)[C@@H](C)CC)[C@@H](C)O)[C@@H](C)O)[C@@H](C)CC)[C@@H](C)CC)C(C)C)C(C)C` [compound 125] (H-IVLSLDVPIGLLQILLEQEKQEAAREQATTNARILARV-NH2; N-terminus assumed): the EC50 at CRF1R (read-out: CRF1R EC50) is more than 100 nM; on CRF2R (read-out: CRF2R EC50) it was 4.47 nM.
